# Measurements as given in patent US6387925B1, “Polymorphs of a crystalline azo-bicyclo (2.2.2) oct-3-yl amine citrate and their pharmaceutical compositions” (Pfizer Inc., priority 1999, dated 2002).
# Entries after “also recorded” stand apart in the source; their conditions may differ. Counter-ions that a name gives are not always drawn. Like-named read-outs stand apart in the source and are kept apart here.
# Experiment: Hygroscopicity measurements
# Format: physicochemical
# Conditions: for water absorbed (hygroscopicity): at 90% RH
# Experimental: Anhydrous citrate synthesis was carried out by adding 1.1 equivalents citric acid to a stirred slurry of the free base in isopropanol (15 volumes) at room temperature. The resulting solution was stirred and monitored by differential scanning calorimetry and after all the free base had reacted (18 hours), the anhydrous citrate salt was obtained as a white crystalline solid by filtration and drying under house vacuum at 45° C. with nitrogen purge (83% yield). […] The crystalline habits frequently encountered are microcrystalline flakes. The most intense reflections, d spacings, observed by X-ray powder diffraction were 17.608, 10.953, 8.782, 7.956, 7.371, 6.802, 6.571, 5.866, 5.462, 4.907, 4.415, 4.188, 3.635 and 3.512Å.
# The resulting citrate monohydrate salt, Form A, was compared to an authentic sample and characterized via PLM, X-ray powder diffraction, proton NMR, Karl Fisher, DSC and elemental analysis. […] The two crystalline habits having similar refractograms encountered were plates and needles. The needle habit was as a result of different rate of growth of the crystal faces in water whereas in isopropanol/water more even growth of crystal faces produced plates. The most intense reflections, d spacings, observed by X-ray powder diffraction were 17.730, 10.928, 9.651, 8.253, 6.707, 5.981, 5.666, 5.450, 4.833, 4.488, and 3.646Å. […] Elemental analysis validated the purity of the salt synthesized.
Compound,water absorbed (hygroscopicity) [% wt./wt.],hygroscopicity (in words) (citrate monohydrate),hygroscopicity (in words)
COc1ccc(C(C)C)cc1CNC1C2CCN(CC2)C1C(c1ccccc1)c1ccccc1.O.O=C(O)CC(O)(CC(=O)O)C(=O)O (stereo not shown) [Form A],2.44,hygroscopically stable; also recorded: lack of hygroscopicity,
"COc1ccc(C(C)C)cc1CN[C@H]1C2CCN(CC2)[C@H]1C(c1ccccc1)c1ccccc1 [anhydrous citrate salt, (2-Benzhydryl-1-azo-bicyclo[2.2.2]oct-3-yl)-(5-isopropyl-2-methoxybenzyl)-amine citrate]",1.11,,nonhygroscopic
